Drawing on patent US20230096028A1, “BICYCLIC HETEROCYCLYL COMPOUNDS AND USES THEREOF” (Revolution Medicines, Inc., priority 2019, published 2023), this text covers IC50 and Kd for 24 compounds.

The term pIC50 denotes the negative decadic logarithm of the IC50, by convention in mol/L. Broadly, the pKd is the Kd on a negative log10 scale, so that one unit is a factor of ten.

In assay [1] the test system is PC-9 cells (EGFR Ex19Del). In words: Potency Assay: pERK (SOS1 pERK IC50 Assay, AlphaLISA SureFire Ultra p-ERK1/2). Type of assay: cell-based. The following applies: Homo sapiens, read-out: SOS1 pERK IC50. The procedure, abridged:
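PC-9 (EGFR Ex19Del) cells plated overnight, then treated 1 h at 37° C. with 10-point 3-fold dilutions (top 10 μM final) in duplicate. Lysate pERK1/2 measured by AlphaLISA SureFire Ultra; IC50 from 4-parameter sigmoidal fit.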
On the technique in general: In Alpha technology, singlet oxygen from a donor bead excites a nearby acceptor bead.

The target of assay [2] is T1, SOS1 catalytic domain (residues 564-1049) (Homo sapiens, UniProt Q07889).
T1 sequence (Q07889 564-1049): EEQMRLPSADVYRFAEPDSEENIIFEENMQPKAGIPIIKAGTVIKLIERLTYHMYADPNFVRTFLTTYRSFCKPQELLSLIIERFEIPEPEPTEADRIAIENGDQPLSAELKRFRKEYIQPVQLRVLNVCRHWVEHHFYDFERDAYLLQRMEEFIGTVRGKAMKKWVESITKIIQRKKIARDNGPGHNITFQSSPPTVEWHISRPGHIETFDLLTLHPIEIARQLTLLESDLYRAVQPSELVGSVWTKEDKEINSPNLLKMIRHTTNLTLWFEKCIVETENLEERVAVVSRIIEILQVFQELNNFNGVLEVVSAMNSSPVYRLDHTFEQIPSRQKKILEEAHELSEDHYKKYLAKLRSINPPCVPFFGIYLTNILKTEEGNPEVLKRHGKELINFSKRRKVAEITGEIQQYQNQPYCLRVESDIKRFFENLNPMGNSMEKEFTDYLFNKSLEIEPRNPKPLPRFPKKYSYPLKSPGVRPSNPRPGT
In words: Potency Assay: binding affinity to SOS1 using Surface Plasmon Resonance (SPR). Also noted: SOS1 catalytic domain (residues 564-1049) immobilized on a sensor chip. The following applies: immobilized SOS1 catalytic domain (residues 564-1049), read-out: SOS1 SPR Equilibrium Kd. The procedure, abridged: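 Avi-tagged SOS1 catalytic domain captured on streptavidin chip (~6000 RU) in 0.01 M HEPES, 0.15 M NaCl, 0.05% P20. Compound dilution series flowed at 50 μL/min for association, then buffer for dissociation, with double reference subtraction. Kd derived from end-of-association binding response plotted against concentration.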

For assay [3], the target named is T1, SOS1 catalytic domain (residues 564-1049). Briefly: Mode of Action Assay: inhibition of SOS1 nucleotide exchange activity (SOS1 TR-FRET IC50 Assay). A general note: In TR-FRET formats the signal depends on donor and acceptor labels being close together.
[4] abbreviates: PC-9 cells (EGFR Ex19Del), 1 hour incubation, AlphaLISA p-ERK1/2.

pIC50, pKd: −log10 of the molar value. Like-named read-outs stand apart in the source and are kept apart here.

As for `C[C@@H](Nc1nc(Cl)nc2c1CN(C(=O)C1CCN(C)C1)C2)c1cc(N)cc(C(F)(F)F)c1` (stereo partly drawn) [Example 101], the pIC50 in assay [1] (setting [4]) and in assay [3] was over 6.00 in each case. In assay [2], the pKd is over 6.40.
With `COc1ccc(CC(=O)N2Cc3nc(Cl)nc(N[C@H](C)c4cc(N)cc(C(F)(F)F)c4)c3C2)cc1OC` [Example 102], the figures for the negative logarithm of the IC50 (pIC50) in assay [1] (setting [4]) and in assay [3] were over 6.00 and under 6.00, respectively. Further, the pKd in assay [2] is under 6.40.
On to `C[C@@H](Nc1nc(Cl)nc2c1CN(C(=O)c1cc(-n3ccnc3)ccn1)C2)c1cc(N)cc(C(F)(F)F)c1` [Example 104], for which the negative-log IC50 (pIC50) in assay [1] (setting [4]) and in assay [3] was over 6.00 in each case. For the same compound, the negative logarithm of the Kd (pKd) in assay [2] is over 6.40.
Take `COc1cccc(C(=O)N2Cc3nc(Cl)nc(N[C@H](C)c4cc(N)cc(C(F)(F)F)c4)c3C2)c1OC` [Example 107]: the negative logarithm of the IC50 (pIC50) in assay [1] (setting [4]) and in assay [3] was over 6.00 in each case. Also, the negative logarithm of the Kd (pKd) in assay [2] is over 6.40.
Regarding `C[C@@H](Nc1nc(Cl)nc2c1CN(C(=O)c1cnc[nH]1)C2)c1cc(N)cc(C(F)(F)F)c1` [Example 108], the pIC50 in assay [1] (setting [4]) and in assay [3] was over 6.00 in each case. Also, the pKd in assay [2] is over 6.40.
On to `C[C@@H](Nc1nc(Cl)nc2c1CN(C(=O)OC1CCOCC1)C2)c1cc(N)cc(C(F)(F)F)c1` [Example 115, oxan-4-yl 4-{[(1R)-1-[3-amino-5-(trifluoromethyl)phenyl]ethyl]amino}-2-chloro-5H,6H,7H-pyrrolo[3,4-d]pyrimidine-6-carboxylate], for which the pIC50 in assay [1] (PC-9, 1 h) was over 6.00; in assay [3] it was under 6.00. Besides, in assay [2], the pKd is over 6.40.
The matching figures for `Cc1nc2c(c(N[C@H](C)c3cc(N)cc(C(F)(F)F)c3)n1)CN(C(=O)OC1CCOCC1)C2` [Example 118, oxan-4-yl 4-{[(1R)-1-[3-amino-5-(trifluoromethyl)phenyl]ethyl]amino}-2-methyl-5H,6H,7H-pyrrolo[3,4-d]pyrimidine-6-carboxylate]: over 6.00, over 6.00 and under 6.40.
In the case of `Cc1nc2c(c(N[C@H](C)c3cc(N)cc(C(F)(F)F)c3)n1)CN(C(=O)C1CCOCC1)C2` [Example 119, N-[(1R)-1-[3-amino-5-(trifluoromethyl)phenyl]ethyl]-2-methyl-6-(oxane-4-carbonyl)-5H,6H,7H-pyrrolo[3,4-d]pyrimidin-4-amine], the pIC50 in assay [1] (setting [4]) was under 6.00; in assay [3] it was over 6.00. Further, in assay [2], the negative logarithm of the Kd (pKd) was over 6.40.
The corresponding values for `CC(=O)N1Cc2nc(C)nc(N[C@H](C)c3cc(N)cc(C(F)(F)F)c3)c2C1` [Example 120, 1-(4-{[(1R)-1-[3-amino-5-(trifluoromethyl)phenyl]ethyl]amino}-2-methyl-5H,6H,7H-pyrrolo[3,4-d]pyrimidin-6-yl)ethan-1-one] are under 6.00, under 6.00 and under 6.40.
Regarding `C[C@@H](Nc1nc(C#N)nc2c1CN(C(=O)N1CCOCC1)C2)c1cc(N)cc(C(F)(F)F)c1` [Example 123, 4-{[(1R)-1-[3-amino-5-(trifluoromethyl)phenyl]ethyl]amino}-6-(morpholine-4-carbonyl)-5H,6H,7H-pyrrolo[3,4-d]pyrimidine-2-carbonitrile], the pIC50 in assay [1] (setting [4]) and in assay [3] was over 6.00 throughout. For the same compound, in assay [2], the pKd is over 6.40.
Take `CNc1nc2c(c(N[C@H](C)c3cc(N)cc(C(F)(F)F)c3)n1)CN(C(=O)N1CCOCC1)C2` [Example 125, N4-[(1R)-1-[3-amino-5-(trifluoro-methyl)phenyl]ethyl]-N2-methyl-6-(morpholine-4-carbonyl)-5H,6H,7H-pyrrolo[3,4-d]pyrimidine-2,4-diamine]: the pIC50 in assay [1] (setting [4]) and in assay [3] was over 6.00 in each case. Besides, the negative-log Kd (pKd) in assay [2] was over 6.40.
`C[C@@H](Nc1nc(OC(F)(F)F)nc2c1CN(C(=O)N1CCOCC1)C2)c1cc(N)cc(C(F)(F)F)c1` [Example 126, N-[(1R)-1-[3-amino-5-(trifluoro-methyl)phenyl]ethyl]-6-(morpholine-4-carbonyl)-2-(trifluoro-methoxy)-5H,6H,7H-pyrrolo-[3,4-d]pyrimidin-4-amine]: the pIC50 in assay [1] (setting [4]) is over 6.00; in assay [3], under 6.00. The pKd in assay [2] was under 6.40.
The matching figures for `CCc1nc2c(c(N[C@H](C)c3cc(N)cc(C(F)(F)F)c3)n1)CN(C(=O)N1CCOCC1)C2` [Example 128, N-[(1R)-1-[3-amino-5-(trifluoromethyl)phenyl]ethyl]-2-ethyl-6-(morpholine-4-carbonyl)-5H,6H,7H-pyrrolo[3,4-d]pyrimidin-4-amine]: over 6.00, over 6.00 and over 6.40.
On to `C[C@@H](Nc1nc(CO)nc2c1CN(C(=O)N1CCOCC1)C2)c1cc(N)cc(C(F)(F)F)c1` [Example 129, (4-{[(1R)-1-[3-amino-5-(trifluoromethyl)-phenyl]ethyl]amino}-6-(morpholine-4-carbonyl)-5H,6H,7H-pyrrolo[3,4-d]pyrimidin-2-yl)methanol], for which the pIC50 in assay [1] (setting [4]) and in assay [3] was over 6.00 in each case. For the same compound, the pKd in assay [2] was over 6.40.
Take `C[C@@H](Nc1nc(CN)nc2c1CN(C(=O)N1CCOCC1)C2)c1cc(N)cc(C(F)(F)F)c1` [Example 130, N-[(1R)-1-[3-amino-5-(trifluoromethyl)phenyl]ethyl]-2-(aminomethyl)-6-(morpholine-4-carbonyl)-5H,6H,7H-pyrrolo[3,4-d]pyrimidin-4-amine]: the pIC50 in assay [1] (setting [4]) was under 6.00; in assay [3] it was over 6.00. For the same compound, the pKd in assay [2] is over 6.40.
Take `C[C@@H](Nc1nc(Br)nc2c1CN(C(=O)N1CCOCC1)C2)c1cc(N)cc(C(F)(F)F)c1` [Example 131, N-[(1R)-1-[3-amino-5-(trifluoro-methyl)phenyl]ethyl]-2-bromo-6-(morpholine-4-carbonyl)-5H,6H,7H-pyrrolo[3,4-d]pyrimidin-4-amine]: the pIC50 in assay [1] (setting [4]) and in assay [3] was over 6.00 each time. Also, the negative-log Kd (pKd) in assay [2] is over 6.40.
Turning to `C[C@@H](Nc1nc(C(F)F)nc2c1CN(C(=O)N1CCOCC1)C2)c1cc(N)cc(C(F)(F)F)c1` [Example 132, N-[(1R)-1-[3-amino-5-(trifluoromethyl)phenyl]ethyl]-2-(difluoromethyl)-6-(morpholine-4-carbonyl)-5H,6H,7H-pyrrolo[3,4-d]pyrimidin-4-amine], the pIC50 in assay [1] (setting [4]) and in assay [3] was over 6.00 each time. Further, in assay [2], the pKd is over 6.40.
As for `C[C@@H](Nc1nc(I)nc2c1CN(C(=O)N1CCOCC1)C2)c1cc(N)cc(C(F)(F)F)c1` [Example 134, N-[(1R)-1-[3-amino-5-(trifluoromethyl)phenyl]ethyl]-2-iodo-6-(morpholine-4-carbonyl)-5H,6H,7H-pyrrolo[3,4-d]pyrimidin-4-amine], the pIC50 in assay [1] (setting [4]) and in assay [3] was over 6.00 throughout. Besides, the pKd in assay [2] is over 6.40.
Take `Nc1cc(CNc2nc(Cl)nc3c2CN(C(=O)N2CCOCC2)C3)cc(C(F)(F)F)c1` [Example 135, N-{[3-amino-5-(trifluoromethyl)phenyl]methyl}-2-chloro-6-(morpholine-4-carbonyl)-5H,6H,7H-pyrrolo[3,4-d]pyrimidin-4-amine]: the negative logarithm of the IC50 (pIC50) in assay [1] (setting [4]) and in assay [3] was under 6.00 each time. The pKd in assay [2] is under 6.40.
`C[C@@H](Nc1nc(Cl)nc2c1CN(C(=O)N1CCOCC1)C2)c1cccc(C(F)(F)F)c1` [Example 137, 2-chloro-6-(morpholine-4-carbonyl)-N-[(1R)-1-[3-(trifluoromethyl)phenyl]ethyl]-5H,6H,7H-pyrrolo[3,4-d]pyrimidin-4-amine]: the pIC50 in assay [1] (setting [4]) and in assay [3] was over 6.00 each time. In addition, the negative-log Kd (pKd) in assay [2] was over 6.40.
In the case of `C[C@@H](Nc1nc(Cl)nc2c1CN(C(=O)N1CCNc3ncccc31)C2)c1cc(N)cc(C(F)(F)F)c1` [Example 138], the negative logarithm of the IC50 (pIC50) in assay [1] (setting [4]) and in assay [3] was over 6.00 each time. Moreover, in assay [2], the negative-log Kd (pKd) is over 6.40.
For `COc1ccc2c(c1)OCCN2C(=O)N1Cc2nc(Cl)nc(N[C@H](C)c3cc(N)cc(C(F)(F)F)c3)c2C1` [Example 140], the pIC50 in assay [1] (setting [4]) is over 6.00; in assay [3], under 6.00. Further, the negative logarithm of the Kd (pKd) in assay [2] is over 6.40.
For `C[C@@H](Nc1nc(Cl)nc2c1CN(C(=O)N1CCc3ccncc31)C2)c1cc(N)cc(C(F)(F)F)c1` [Example 142], the pIC50 in assay [1] (setting [4]) and in assay [3] was over 6.00 in each case. The negative-log Kd (pKd) in assay [2] was over 6.40.
`C[C@@H](Nc1nc(Cl)nc2c1CN(C(=O)N1CCOC(c3ccncc3)C1)C2)c1cc(N)cc(C(F)(F)F)c1` (stereo partly drawn) [Example 145]: the pIC50 in assay [1] (setting [4]) and in assay [3] was over 6.00 in each case. Moreover, the pKd in assay [2] is over 6.40.
